In experiment [1] the target is GDP-bound KRAS wild-type protein (Homo sapiens, UniProt P01116). Nature of the experiment: Binding to KRAS by surface plasmon resonance (SPR), dissociation constant KD. As to conditions: Single Cycle Kinetics. The essentials: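 SPR, 30°C: Avi-biotin RAS·GDP captured via Biotin CAPture (~100–300 RU); running buffer HBS pH 7.4, 1 mM DTT, 10 mM MgCl2, 0.01% Tween 20, 10 µM GDP, 4% DMSO. Single-cycle kinetics, 100 µL/min, 75 s injections; 1:1 model → KD.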
For orientation: Surface plasmon resonance follows binding to a sensor surface in real time, without labels.

Experiment [2] has as its target GDP-bound NRAS wild-type protein (Homo sapiens, UniProt P01111). Nature of the experiment: Binding to NRAS by surface plasmon resonance (SPR), KD and KD ratio to KRAS. The settings on record: ratio of KD for GDP-bound NRAS wild-type protein to KD for KRAS. The essentials: (§1)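 Affinity is measured by surface plasmon resonance at 30°C against captured, GDP-loaded RAS carrying a biotinylated Avi tag. Compounds are titrated by single-cycle kinetics, and KD comes from a 1:1 fit.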

A further experiment addresses HRAS wild-type protein (Homo sapiens, UniProt P01112). The experiment can be described thus: Binding to HRAS by surface plasmon resonance (SPR), KD and KD ratio to KRAS. The settings on record: ratio of KD for HRAS wild-type protein to KD for KRAS. The essentials: as §1
The test system of experiment [3] is human lung cancer strain NCI-H441. Format: cell-based. The essentials:
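Readout: […] after the ATP-based reagent. Compound: serial dilutions in dimethyl sulfoxide.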

Data on ten compounds can be found in patent publication EP4603105A1, “PHARMACEUTICAL COMPOSITION CONTAINING CYCLIC COMPOUND HAVING SELECTIVE KRAS INHIBITORY EFFECT AGAINST HRAS AND NRAS” (CHUGAI SEIYAKU KABUSHIKI KAISHA, priority 2022, dated 2024).

Each structure is given as a SMILES string.

GDP-bound NRAS wild-type protein, sequence (P01111 whole entry): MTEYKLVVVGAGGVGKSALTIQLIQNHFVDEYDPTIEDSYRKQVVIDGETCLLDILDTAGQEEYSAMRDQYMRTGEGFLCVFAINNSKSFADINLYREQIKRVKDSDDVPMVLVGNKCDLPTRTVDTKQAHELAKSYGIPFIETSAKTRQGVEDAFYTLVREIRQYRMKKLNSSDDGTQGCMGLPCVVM
GDP-bound KRAS wild-type protein, sequence (P01116 1-188 isoform P01116-2): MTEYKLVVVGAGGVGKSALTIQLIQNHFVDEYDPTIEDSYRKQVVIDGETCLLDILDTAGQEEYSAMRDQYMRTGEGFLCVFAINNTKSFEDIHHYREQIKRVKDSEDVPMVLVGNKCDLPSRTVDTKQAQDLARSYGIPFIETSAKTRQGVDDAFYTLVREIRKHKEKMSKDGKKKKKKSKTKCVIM
HRAS wild-type protein, sequence (P01112 whole entry): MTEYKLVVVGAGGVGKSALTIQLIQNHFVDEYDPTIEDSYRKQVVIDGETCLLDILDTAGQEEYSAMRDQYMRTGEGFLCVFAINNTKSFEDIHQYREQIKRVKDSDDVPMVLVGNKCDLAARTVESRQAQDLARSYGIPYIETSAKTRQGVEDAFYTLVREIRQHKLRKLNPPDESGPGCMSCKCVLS

In the case of `CCO[C@@H]1C[C@H]2C(=O)NC3(CCC3)C(=O)N(C)[C@@H](C3CCCC3)C(=O)N(C)[C@H](C(=O)N(C)C)CC(=O)N(CC)[C@@H](CC(C)C)C(=O)N[C@@H]([C@@H](C)CC)C(=O)N(C)CC(=O)N(C)[C@H]3CC(C)=CCN(C3=O)[C@@H](Cc3ccc(C(F)(F)F)cc3)C(=O)N(C)CC(=O)N[C@@H](CCc3cc(F)c(C(F)(F)F)c(F)c3)C(=O)N2C1` [PP1037], the affinity in experiment [1], expressed as Kd, was 0.00076 µM. Further, the “NRAS /KRAS” value in experiment [2] is “C (A compound having a KD ratio of 0.1 or more and less than 3 is denoted as C)”. For the same compound, on HRAS wild-type protein, the “HRAS /KRAS” value is “C (A compound having a KD ratio of 0.1 or more and less than 3 is denoted as C)”. Besides, the 50% inhibitory concentration (IC50) – broadly, the concentration needed to halve the response being measured – in experiment [3] came out at 0.296 µM.

Consider `CCO[C@@H]1C[C@H]2C(=O)NC3(CCC3)C(=O)N(C)[C@@H](C3CCCC3)C(=O)N(C)[C@H](C(=O)N(C)C)CC(=O)N(C)[C@@H](CC)C(=O)N[C@@H]([C@@H](C)CC)C(=O)N(C)CC(=O)N(C)[C@H]3CC(C)=C(C)CN(C3=O)[C@@H](Cc3ccc(C(F)(F)F)cc3)C(=O)N(C)CC(=O)N[C@@H](CCc3cc(F)c(C(F)(F)F)c(F)c3)C(=O)N2C1` [PP1048], for which binding in experiment [1] was put at a Kd of 0.00049 µM. For the same compound, the “NRAS /KRAS” value in experiment [2] is “C (A compound having a KD ratio of 0.1 or more and less than 3 is denoted as C)”. Also, the “HRAS /KRAS” value on HRAS wild-type protein is “C (A compound having a KD ratio of 0.1 or more and less than 3 is denoted as C)”. The compound further gave an IC50 in experiment [3] of 0.134 µM.

For `CCO[C@@H]1C[C@H]2C(=O)NC3(CCC3)C(=O)N(C)[C@@H](C3CCCC3)C(=O)N(C)[C@H](C(=O)N(C)C)CC(=O)N(CC)[C@@H](CC(C)C)C(=O)N[C@@H]([C@@H](C)CC)C(=O)N(C)CC(=O)N(C)[C@H]3CC(C)=C(C)CN(C3=O)[C@@H](Cc3ccc(C(F)(F)F)cc3)C(=O)N(C)CC(=O)N[C@@H](CCc3cc(F)c(C(F)(F)F)c(F)c3)C(=O)N2C1` [PP1051], the Kd (commonly the free concentration of one partner at which half of the binding sites on the other are occupied at equilibrium, for simple one-to-one binding) in experiment [1] was 0.0018 µM. The “NRAS /KRAS” value in experiment [2] was “C (A compound having a KD ratio of 0.1 or more and less than 3 is denoted as C)”. Besides, the “HRAS /KRAS” value at HRAS wild-type protein was “C (A compound having a KD ratio of 0.1 or more and less than 3 is denoted as C)”. Moreover, the half-inhibitory concentration (IC50) in experiment [3] stood at 0.286 µM.

In turn, `CCO[C@@H]1C[C@H]2C(=O)NC3(CCC3)C(=O)N(C)[C@@H](C3CCCC3)C(=O)N(C)[C@H](C(=O)N(C)C)CC(=O)N(C)[C@@H](CC)C(=O)N[C@@H]([C@@H](C)CC)C(=O)N3CCC[C@H]3C(=O)N(C)[C@H]3C/C=C\CCN(C3=O)[C@@H](Cc3ccc(C(F)(F)F)cc3)C(=O)N(C)CC(=O)N[C@@H](CCc3cc(F)c(C(F)(F)F)c(F)c3)C(=O)N2C1` [PP1056] had a Kd in experiment [1] of 0.00021 µM. Further, in experiment [2], the “NRAS /KRAS” value is “A (a compound having 10 or more and less than 20 is denoted as A)”. Also, on HRAS wild-type protein, the “HRAS /KRAS” value was “A (a compound having 10 or more and less than 20 is denoted as A)”. The same compound yielded an IC50 in experiment [3] of 0.075 µM.

`CCO[C@@H]1C[C@H]2C(=O)NC3(CCC3)C(=O)N(C)[C@@H](C3CCCC3)C(=O)N(C)[C@H](C(=O)N(C)C)CC(=O)N(C)[C@@H](CC)C(=O)N[C@@H]([C@@H](C)CC)C(=O)N3CCCC[C@H]3C(=O)N(C)[C@H]3C/C=C\CCN(C3=O)[C@@H](Cc3ccc(C(F)(F)F)cc3)C(=O)N(C)CC(=O)N[C@@H](CCc3cc(F)c(C(F)(F)F)c(F)c3)C(=O)N2C1` [PP1058] showed a Kd in experiment [1] of 0.0029 µM. For the same compound, the “NRAS /KRAS” value in experiment [2] is “A (a compound having 10 or more and less than 20 is denoted as A)”. In addition, the “HRAS /KRAS” value on HRAS wild-type protein is “B (a compound having 3 or more and less than 10 is denoted as B)”. This compound also gave an IC50 in experiment [3] of 0.599 µM.

In experiment [1], `CCO[C@@H]1C[C@H]2C(=O)NC3(CCC3)C(=O)N(C)[C@@H](C3CCCC3)C(=O)N(C)[C@H](C(=O)N(C)C)CC(=O)N(C)[C@@H](CC)C(=O)N[C@@H]([C@@H](C)CC)C(=O)N3CC[C@@H]3C(=O)N(C)[C@H]3C/C=C\CCN(C3=O)[C@@H](Cc3ccc(C(F)(F)F)cc3)C(=O)N(C)CC(=O)N[C@@H](CCc3cc(F)c(C(F)(F)F)c(F)c3)C(=O)N2C1` [PP1064] had a Kd of 0.017 µM. For the same compound, the “NRAS /KRAS” value in experiment [2] is “A (a compound having 10 or more and less than 20 is denoted as A)”. For the same compound, at HRAS wild-type protein, the “HRAS /KRAS” value is “A (a compound having 10 or more and less than 20 is denoted as A)”. For the same compound, in experiment [3], the half-inhibitory concentration (IC50) amounted to 1.39 µM.

For the compound `CCO[C@@H]1CCN2C(=O)[C@H](CCc3cc(F)c(C(F)(F)F)c(F)c3)NC(=O)CN(C)C(=O)[C@H](Cc3ccc(C(F)(F)F)cc3)N3CCCCC[C@@H](C3=O)N(C)C(=O)CN(C)C(=O)[C@H]([C@@H](C)CC)NC(=O)[C@H](CC(C)C)N(C)C(=O)C[C@@H](C(=O)N3CCOCC3)N(C)C(=O)[C@H](C3CCCC3)N(C)C(=O)C3(CCC3)NC(=O)[C@H]12` [PP1082], the Kd in experiment [1] was determined as 0.0035 µM. Further, the “NRAS /KRAS” value in experiment [2] was “A (a compound having 10 or more and less than 20 is denoted as A)”. The “HRAS /KRAS” value on HRAS wild-type protein was “B (a compound having 3 or more and less than 10 is denoted as B)”. Further, in experiment [3], the IC50 was determined as 0.3 µM.

For the compound `CCO[C@@H]1C[C@H]2C(=O)NC3(CCC3)C(=O)N(C)[C@@H](C3CCCC3)C(=O)N(C)[C@H](C(=O)N3C4CCC3COC4)CC(=O)N(C)[C@@H](CC)C(=O)N[C@@H]([C@@H](C)CC)C(=O)N(C)CC(=O)N(C)[C@H]3C/C=C\CCN(C3=O)[C@@H](Cc3ccc(C(F)(F)F)cc3)C(=O)N(C)CC(=O)N[C@@H](CCc3cc(F)c(C(F)(F)F)c(F)c3)C(=O)N2C1` [PP1093], binding in experiment [1] was put at a Kd of 0.00058 µM. Further, the “NRAS /KRAS” value in experiment [2] is reported as “AA (a compound having 20 or more is denoted as AA)”. In addition, the “HRAS /KRAS” value on HRAS wild-type protein is “A (a compound having 10 or more and less than 20 is denoted as A)”. For the same compound, the IC50 in experiment [3] was 0.0787 µM.

Regarding `CC[C@H](C)[C@@H]1NC(=O)[C@H](CC(C)C)N(C)C(=O)C[C@@H](C)N(C)C(=O)[C@H](C2CCCC2)N(C)C(=O)C2(CCC2)NC(=O)[C@@H]2CCCN2C(=O)[C@H](CCc2cc(F)c(C(F)(F)F)c(F)c2)NC(=O)CN(C)C(=O)[C@H](Cc2ccc(C(F)(F)F)cc2)N2CC/C=C\C[C@@H](C2=O)N(C)C(=O)CN(C)C1=O` [PP1099], binding in experiment [1] was put at a Kd of 0.00058 µM. Further, in experiment [2], the “NRAS /KRAS” value was “B (a compound having 3 or more and less than 10 is denoted as B)”. For the same compound, the “HRAS /KRAS” value on HRAS wild-type protein is “A (a compound having 10 or more and less than 20 is denoted as A)”. In experiment [3], 0.0681 µM corresponded to half-maximal inhibition (IC50).

In the case of `CCO[C@@H]1C[C@H]2C(=O)NC3(CCC3)C(=O)N(C)[C@@H](C3CCCC3)C(=O)N(C)[C@H](C)CC(=O)N(C)[C@@H](CC(C)C)C(=O)N[C@@H]([C@@H](C)CC)C(=O)N(C)CC(=O)N(C)[C@H]3C/C=C\CCN(C3=O)[C@@H](Cc3ccc(C(F)(F)F)cc3)C(=O)N(C)CC(=O)N[C@@H](CCc3cc(F)c(C(F)(F)F)c(F)c3)C(=O)N2C1` [PP1100], the Kd in experiment [1] worked out at 0.00019 µM. For the same compound, the “NRAS /KRAS” value in experiment [2] is “B (a compound having 3 or more and less than 10 is denoted as B)”. The “HRAS /KRAS” value at HRAS wild-type protein is “B (a compound having 3 or more and less than 10 is denoted as B)”. In addition, half-maximal inhibition in experiment [3] (IC50) was put at 0.0176 µM.
